In US20120129842A1, “BISTHIAZOLE INHIBITORS OF PRO-MATRIX METALLOPROTEINASE ACTIVATION” (priority 2010, published 2012):
Counter-ions that a name gives are not always drawn.

Tests used:
[1] = molecular target: T1, proMMP9(67-444;ΔFnII) (SEQ ID NO:5) (Homo sapiens, UniProt P14780, DEL216-390); assay: ThermoFluor binding assay with proMMP9(67-444;ΔFnII); conditions: pH 7.0
T1 construct: start methionine (N); made in house; host or cells: E. coli BL21(DE3) RIL
T1 sequence (P14780 with tags, fused parts or gaps DEL216-390): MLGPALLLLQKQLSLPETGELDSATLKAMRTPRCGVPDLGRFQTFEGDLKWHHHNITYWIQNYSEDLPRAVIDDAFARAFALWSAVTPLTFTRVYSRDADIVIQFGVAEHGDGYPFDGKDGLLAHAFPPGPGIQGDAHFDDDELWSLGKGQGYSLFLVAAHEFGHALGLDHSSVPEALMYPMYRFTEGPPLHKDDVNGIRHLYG
Procedure, shortened: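 Thermal shift binding with 3.5 μM proMMP9(67-444;ΔFnII) and 50 μM 1,8-ANS in 50 mM HEPES pH 7.0, 100 mM NaCl, 2.5 mM MgCl2, 300 μM CaCl2, 0.001% Tween-20, with serially diluted compound. Heated 40 to 90° C at 1° C/min; fluorescence-derived Tm fitted using DSC/ThermoFluor thermodynamic parameters.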

[2] = molecular target: T2, proMMP9(20-445;ΔFnII) (SEQ ID NO:6) (Homo sapiens, UniProt P14780, DEL216-390); assay: ThermoFluor binding assay with proMMP9(20-445;ΔFnII); conditions: pH 7.0
T2 construct: start methionine (N); made in house; host or cells: E. coli BL21(DE3) RIL
T2 sequence (P14780 with tags, fused parts or gaps DEL216-390): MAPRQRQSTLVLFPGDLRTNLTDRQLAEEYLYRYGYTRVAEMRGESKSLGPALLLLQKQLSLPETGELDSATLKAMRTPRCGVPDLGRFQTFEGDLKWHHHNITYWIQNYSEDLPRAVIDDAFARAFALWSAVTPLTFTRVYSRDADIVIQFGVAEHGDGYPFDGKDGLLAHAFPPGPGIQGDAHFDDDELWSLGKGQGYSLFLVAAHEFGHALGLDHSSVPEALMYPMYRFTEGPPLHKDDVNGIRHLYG
Procedure, shortened: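 proMMP9(20-445;ΔFnII) at 2.8 μM with 50 μM 1,8-ANS in 50 mM HEPES pH 7.0, 100 mM NaCl, 0.001% Tween-20, 2.5 mM MgCl2, 300 μM CaCl2; compounds serially diluted in DMSO. Heated 40–90 °C at 1 °C/min, fluorescence read at 500±25 nm. Tm fit by standard equations; binding fit using DSC/TF-derived thermodynamic parameters.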

[3] = molecular target: T3, full-length proMMP9(1-707) (SEQ ID NO:1) (Homo sapiens, UniProt P14780, R574P); assay: proMMP9/MMP3 P126 Activation Assay; assay type: biochemical; conditions: 20 nM proMMP9, 20 nM MMP3, 80 min 37° C.
T3 construct: made in house; host or cells: HEK293 (proMMP9, secreted); E. coli (MMP3)
Description: The reaction volume was 50 μL. […] Reactivity of residual MMP3 towards P-126 substrate was minimal under these conditions.

[4] = molecular target: proMMP13(1-268) (SEQ ID NO:7) (Homo sapiens, UniProt P45452); assay: ThermoFluor binding assay with proMMP13(1-268); parameters: 6xHis (C); made in house; conditions: pH 7.0
Description: The ThermoFluor® (TF) assay is a 384-well plate-based binding assay that measures thermal stability of proteins (Biomol Screen 2001, 6, 429-40; Biochemistry 2005, 44, 5258-66). The experiments were carried out using instruments available from Johnson & Johnson Pharmaceutical Research & Development, LLC. TF dye used in all experiments was […] (1,8-ANS) (Invitrogen: A-47).
Compounds were arranged in a pre-dispensed plate (Greiner Bio-one: 781280), wherein compounds were serially diluted in 100% DMSO across 11 columns within a series. Columns 12 and 24 were used as DMSO reference and contained no compound. For multiple compound concentration-response experiments, the compound aliquots ([…]) were robotically predispensed directly into black 384-well polypropylene PCR microplates (Abgene: TF-0384/k) using a Cartesian Hummingbird liquid handler (DigiLab, Holliston, Mass.). Following compound dispense, protein and dye solutions were added to achieve the final assay volume of 3 μL. The assay solutions were overlayed with 1 μL of silicone oil (Fluka, type DC 200: 85411) to prevent evaporation.
Assay plates were robotically loaded onto a thermostatically controlled PCR-type thermal block and then heated from 40 to 90° C. at a ramp-rate of 1° C./min for all experiments. Fluorescence was measured by continuous illumination with UV light (Hamamatsu LC6) supplied via fiber optics and filtered through a band-pass filter (380-400 nm; >6 OD cutoff). Fluorescence emission of the entire 384-well plate was detected by measuring light intensity using a CCD camera (Sensys, Roper Scientific) filtered to detect 500±25 nm, resulting in simultaneous and independent readings of all 384 wells. A single image with 20-sec exposure time was collected at each temperature, and the sum of the pixel intensity in a given area of the assay plate was recorded vs temperature and fit to standard equations to yield the Tm (J Biomol Screen 2001, 6, 429-40).
Thermodynamic parameters necessary for fitting compound binding for each proMMP were estimated by differential scanning calorimetry (DSC) and from ThermoFluor® data. The heat capacity of unfolding for each protein was estimated from the molecular weight and from ThermoFluor® dosing data.
The proMMP13(1-268) (SEQ ID NO:7) protein sample preparations included a desalting buffer exchange step via a PD-10 gravity column (GE Healthcare). The desalting buffer exchange was performed prior to diluting the protein to the final assay concentration of 3.5 μM. The concentration of proMMP13(1-268) (SEQ ID NO:7) was estimated spectrophotometrically based on a calculated extinction coefficient of ε280=37000 M^−1cm^−1, a calculated molecular weight of 30.8 kDa, and calculated pI of 5.33. ThermoFluor® reference conditions were defined as follows: 100 μg/mL proMMP13(1-268) (SEQ ID NO:7), 25 μM 1,8-ANS, pH 7.0 Buffer (50 mM HEPES pH 7.0, 100 mM NaCl, 0.001% Tween-20, 2.5 mM MgCl2, 300 μM CaCl2). The thermodynamic parameters for proMMP13(1-268) (SEQ ID NO:7) are as follows: Tm (° C.)=67 (+/−0.1), ΔUH(Tm) (cal mol^−1)=107000(+/−5000), ΔUS(Tm) (cal mol^−1 K^−1)=318, ΔUCp (cal mol^−1 K^−1)=2600.

T3 sequence (P14780 20-707 R574P): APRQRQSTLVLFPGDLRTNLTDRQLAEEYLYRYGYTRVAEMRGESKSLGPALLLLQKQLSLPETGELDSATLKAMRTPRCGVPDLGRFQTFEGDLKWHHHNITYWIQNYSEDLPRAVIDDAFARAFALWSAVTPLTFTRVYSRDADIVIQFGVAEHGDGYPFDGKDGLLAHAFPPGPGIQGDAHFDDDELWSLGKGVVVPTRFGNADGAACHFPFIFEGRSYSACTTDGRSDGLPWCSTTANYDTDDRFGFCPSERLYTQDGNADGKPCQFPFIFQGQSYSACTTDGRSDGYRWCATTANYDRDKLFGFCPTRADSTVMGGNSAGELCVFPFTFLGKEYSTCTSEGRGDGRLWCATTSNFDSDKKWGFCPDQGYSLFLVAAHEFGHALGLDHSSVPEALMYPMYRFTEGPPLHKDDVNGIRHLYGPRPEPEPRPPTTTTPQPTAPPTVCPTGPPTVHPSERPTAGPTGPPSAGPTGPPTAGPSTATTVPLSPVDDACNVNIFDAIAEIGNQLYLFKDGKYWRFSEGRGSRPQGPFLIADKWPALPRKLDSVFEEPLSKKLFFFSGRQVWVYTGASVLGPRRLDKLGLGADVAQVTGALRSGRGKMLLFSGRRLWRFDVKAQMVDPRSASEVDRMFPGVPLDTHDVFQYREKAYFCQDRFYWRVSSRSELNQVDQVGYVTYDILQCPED

Kd [1]	Kd [2]	IC50 [3]	Kd [4]	SMILES
0.56 µM	1.3 µM	0.1 µM	39 µM	CCOc1ccc(C(N)=O)cc1Nc1nc(-c2sc(NC(C)=O)nc2C)cs1 [Example 8, 3-(2′-Acetylamino-4′-methyl-[4,5′]bithiazolyl-2-ylamino)-4-ethoxy-benzamide.TFA]
5.1 µM	0.83 µM	6.1 µM	7 µM	CCCOc1ccc(C(N)=O)cc1Nc1nc(-c2sc(C)nc2C)cs1 [Example 13, 3-(2′,4′-Dimethyl-[4,5′]bithiazolyl-2-ylamino)-4-propoxy-benzamide]
> 95 µM	7.9 µM	> 20 µM	13 µM	Cc1nc(C)c(-c2csc(Nc3cc(C(N)=O)ccc3OC3CCCC3)n2)s1 [Example 15, 4-Cyclopentyloxy-3-(2′,4′-dimethyl-[4,5′]bithiazolyl-2-ylamino)-benzamide]
0.73 µM	0.082 µM	0.46 µM	12 µM	Cc1nc(C)c(-c2csc(Nc3cc(C(N)=O)ccc3OC(F)(F)F)n2)s1 [Example 17, 3-(2′,4′-Dimethyl-[4,5′]bithiazolyl-2-ylamino)-4-trifluoromethoxy-benzamide]
0.84 µM	0.34 µM	0.69 µM	14 µM	COc1ccc(C(N)=O)cc1Nc1nc(-c2sc(C)nc2C)cs1 [Example 18, 3-(2′,4′-Dimethyl-[4,5′]bithiazolyl-2-ylamino)-4-methoxy-benzamide.HBr]
6.8 µM	2.7 µM	4.6 µM	31 µM	Cc1ccc(C(N)=O)cc1Nc1nc(-c2sc(N)nc2C)cs1 [Example 25, 3-(2′-Amino-4′-methyl-[4,5′]bithiazolyl-2-ylamino)-4-methyl-benzamide.HBr]
3 µM	8.9 µM	> 20 µM	84 µM	CC(=O)Nc1nc(C)c(-c2csc(Nc3cc(C(N)=O)ccc3Cl)n2)s1 [Example 26, 3-(2′-Acetylamino-4′-methyl-[4,5′]bithiazolyl-2-ylamino)-4-chloro-benzamide.HBr]
> 95 µM	61 µM	3.8 µM	> 95 µM	Cc1cc2cccc(Nc3nc(-c4sc(C)nc4C)cs3)c2o1 [Example 29, (2′,4′-Dimethyl-[4,5′]bithiazolyl-2-yl)-(2-methyl-benzofuran-7-yl)-amine]
4.9 µM	18 µM	4.1 µM	> 95 µM	COc1ccc(CC(N)=O)cc1Nc1nc(-c2sc(C)nc2C)cs1 [Example 30, 2-[3-(2′,4′-Dimethyl-[4,5′]bithiazolyl-2-ylamino)-4-methoxy-phenyl]-acetamide]
33 µM	9 µM	~7 µM	49 µM	COc1cc2c(cc1Nc1nc(-c3sc(C)nc3C)cs1)C(=O)NC2 [Example 31, 6-(2′,4′-Dimethyl-[4,5′]bithiazolyl-2-ylamino)-5-methoxy-2,3-dihydro-isoindol-1-one]
0.25 µM	0.72 µM	0.15 µM	1.9 µM	Cc1nc(NC(=O)C2CCN(C)CC2)sc1-c1csc(Nc2cc(C(N)=O)ccc2OC(C)C)n1 [Example 32, 1-Methyl-piperidine-4-carboxylic acid [2-(5-carbamoyl-2-isopropoxy-phenylamino)-4′-methyl-[4,5′]bithiazolyl-2′-yl]-amide]
> 95 µM	13 µM	7.3 µM	2.9 µM	Cc1nc(C)c(-c2csc(Nc3cc(S(N)(=O)=O)cc4c3OCC4)n2)s1 [Example 33, 7-(2′,4′-Dimethyl-[4,5′]bithiazolyl-2-ylamino)-2,3-dihydro-benzofuran-5-sulfonic acid amide]
12 µM	7.8 µM	9 µM	28 µM	COc1c(F)cc(C(N)=O)cc1Nc1nc(-c2sc(C)nc2C)cs1 [Example 34, 3-(2′,4′-Dimethyl-[4,5′]bithiazolyl-2-ylamino)-5-fluoro-4-methoxy-benzamide]
27 µM	0.85 µM	0.67 µM	11 µM	COc1cc(C)c(C(N)=O)cc1Nc1nc(-c2sc(C)nc2C)cs1 [Example 36, 5-(2′,4′-Dimethyl-[4,5′]bithiazolyl-2-ylamino)-4-methoxy-2-methyl-benzamide.TFA]
1.4 µM	1.1 µM	0.76 µM	> 95 µM	COc1ccc(C#N)cc1Nc1nc(-c2sc(C)nc2C)cs1 [Example 39, 3-(2′,4′-Dimethyl-[4,5′]bithiazolyl-2-ylamino)-4-methoxy-benzonitrile.TFA]
0.31 µM	0.99 µM	0.9 µM	1.5 µM	COc1ccc(C#N)cc1Nc1nc(-c2sc(N)nc2C)cs1 [Example 40, 3-(2′-Amino-4′-methyl-[4,5′]bithiazolyl-2-ylamino)-4-methoxy-benzonitrile.HBr]
0.58 µM	0.59 µM	0.76 µM	0.84 µM	CC(=O)Nc1nc(C)c(-c2csc(Nc3cc(S(C)(=O)=O)ccc3OC(C)C)n2)s1 [Example 43, N-[2-(2-Isopropoxy-5-methanesulfonyl-phenylamino)-4′-methyl-[4,5]bithiazolyl-2′-yl]-acetamide.TFA]
0.24 µM	0.072 µM	0.41 µM	0.07 µM	Cc1nc(N)sc1-c1csc(Nc2cc(S(C)(=O)=O)ccc2OC(C)C)n1 [Example 44, N^2-(2-Isopropoxy-5-methanesulfonyl-phenyl)-4′-methyl-[4,5′]bithiazolyl-2,2′-diamine.TFA]

SMILES	Kd [1]	Kd [2]	IC50 [3]	Kd [4]
Cc1nc(C)c(-c2csc(Nc3cc(C(N)=O)ccc3OCC(C)C)n2)s1 [Example 28, 3-(2′,4′-Dimethyl-[4,5′]bithiazolyl-2-ylamino)-4-isobutoxy-benzamide]	> 95 µM	11 µM	> 20 µM	56 µM
